Data from patent US6274715A, “Tricyclic erythromycin derivatives” (priority 1997, dated 2001).
Converted amounts (≈) assume the structure as drawn.

Columns and labels:
Type in all cases: cell-based
[1] = test system: PSEUDOMONAS AERUGINOSA K799/61; assay: In vitro antibacterial activity, MIC, BHI agar dilution; details: P. aeruginosa K799/61, unit assumed
ESCHERICHIA COLI DC-2 = assay: as above; details: E. coli DC-2, unit assumed
STR[…] 508 = assay: as above; details: S. agalactiae CMX 508, unit assumed
Summary of the method: (§1)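 MIC was read visually as the lowest drug level with no growth, a slight haze or sparsely isolated colonies relative to a compound-free growth control. Organisms were spotted at 1:100 dilution (1:10 for slow-growing strains) onto Brain Heart Infusion agar containing serial compound dilutions and incubated 20 to 24 hours at 35-37° C.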

M[…] ATCC 4698 = assay: as above; details: M. luteus ATCC 4698, unit assumed
Summary of the method: as §1

EN[…] ATCC 8043 = assay: as above; details: E. faecium ATCC 8043, unit assumed
Summary of the method: as §1

M[…] ATCC 9341 = assay: as above; details: M. luteus ATCC 9341, unit assumed
Summary of the method: as §1

PSEUDOMONAS CEPACIA 296I = assay: as above; details: P. cepacia 296I, unit assumed
[2] = test system: KLEBSIELLA PNEUMONIAE ATCC 8045; assay: as above; details: K. pneumoniae ATCC 8045, unit assumed
[3] = test system: STAPHYLOCOCCUS AUREUS A-5278; assay: as above; details: S. aureus A-5278, unit assumed
ESCHERICHIA COLI JUHL = details: E. coli JUHL; BHI agar; unit assumed
[4] = test system: STAPHYLOCOCCUS EPIDERMIDIS 3519; details: S. epidermidis 3519; BHI agar; unit assumed
[5] = test system: PSEUDOMONAS AERUGINOSA K799/WT; assay: In vitro antibacterial activity, MIC, BHI agar dilution; details: P. aeruginosa K799/WT, unit assumed
[6] = test system: PSEUDOMONAS AERUGINOSA BMH10; assay: as above; details: P. aeruginosa BMH10, unit assumed
[7] = test system: PSEUDOMONAS AERUGINOSA DPHD-2862; assay: as above; details: P. aeruginosa DPHD-2862, unit assumed
[8] = test system: STAPHYLOCOCCUS AUREUS CMX 642A; assay: as above; details: S. aureus CMX 642A, unit assumed
[9] = test system: STAPHYLOCOCCUS AUREUS A5177; assay: as above
ESCHERICHIA COLI KNK 437 = details: E. coli KNK 437; BHI agar; unit assumed
[10] = test system: ACINETOBACTER CALCOACETICUS CMX 669; assay: In vitro antibacterial activity, MIC, BHI agar dilution; details: A. calcoaceticus CMX 669, unit assumed
[11] = test system: STAPHYLOCOCCUS AUREUS CMX 553; assay: as above; details: S. aureus CMX 553, unit assumed
[12] = test system: ENTEROBACTER AEROGENES ATCC 13048; assay: as above; details: E. aerogenes ATCC 13048, unit assumed
[13] = test system: STREPTOCOCCUS BOVIS A-5169; assay: as above; details: S. bovis A-5169, unit assumed
ESCHERICHIA COLI H560 = assay: as above; details: E. coli H560, unit assumed
CANDIDA ALBICANS CCH 442 = assay: as above; details: C. albicans CCH 442, unit assumed
[14] = test system: STAPHYLOCOCCUS AUREUS 1775; assay: as above; details: S. aureus 1775, unit assumed
[15] = test system: PSEUDOMONAS AERUGINOSA 5007; assay: as above; details: P. aeruginosa 5007, unit assumed
[16] = test system: MYCOBACTERIUM SMEGMATIS ATCC 114; assay: as above; details: M. smegmatis ATCC 114, unit assumed
[17] = test system: PROVIDENCIA STUARTII CMX 640; details: P. stuartii CMX 640; BHI agar; unit assumed
[18] = test system: STAPHYLOCOCCUS AUREUS NCTC10649M; assay: In vitro antibacterial activity, MIC, BHI agar dilution; details: S. aureus NCTC10649M, unit assumed
[19] = test system: PSEUDOMONAS AERUGINOSA DPHD-5263; assay: as above; details: P. aeruginosa DPHD-5263, unit assumed
[20] = test system: STREPTOCOCCUS PYOGENES 930; assay: as above; details: S. pyogenes 930, unit assumed
[21] = test system: STAPHYLOCOCCUS AUREUS ATCC 6538P; assay: as above; details: S. aureus ATCC 6538P, 35-37° C., 20 to 24 hours, unit assumed
ESCHERICHIA COLI SS = assay: as above; details: E. coli SS, unit assumed
[22] = test system: STREPTOCOCCUS PYOGENES EES61; assay: as above; details: S. pyogenes EES61, unit assumed
[23] = test system: STREPTOCOCCUS PYOGENES PIU 2548; assay: as above; details: S. pyogenes PIU 2548, unit assumed

| Compound | MIC [1] [µg/mL] | MIC (ESCHERICHIA COLI DC-2) [µg/mL] | MIC (STR[…] 508) [µg/mL] | MIC (M[…] ATCC 4698) [µg/mL] | MIC (EN[…] ATCC 8043) [µg/mL] | MIC (M[…] ATCC 9341) [µg/mL] | MIC (PSEUDOMONAS CEPACIA 296I) [µg/mL] | MIC [2] [µg/mL] | MIC [3] [µg/mL] | MIC (ESCHERICHIA COLI JUHL) [µg/mL] | MIC [4] [µg/mL] | MIC [5] [µg/mL] | MIC [6] [µg/mL] | MIC [7] [µg/mL] | MIC [8] [µg/mL] | MIC (ESCHERICHIA COLI KNK 437) [µg/mL] | MIC [10] [µg/mL] | MIC [11] [µg/mL] | MIC [12] [µg/mL] | MIC (ESCHERICHIA COLI H560) [µg/mL] | other results |
| --- | --- | --- | --- | --- | --- | --- | --- | --- | --- | --- | --- | --- | --- | --- | --- | --- | --- | --- | --- | --- | --- |
| CC[C@H]1OC(=O)[C@H](C)C(=O)[C@H](C)[C@@H](O[C@@H]2O[C@H](C)C[C@H](N(C)C)[C@H]2O)[C@](C)(OC)C[C@@H](C)C2=N[C@H](COCc3ccc(C#N)cc3)CN3C(=O)O[C@@]1(C)[C@H]3[C@H]2C [Example 74] | 3.1 (≈ 3.96 µM) | 100 (≈ 128 µM) | 0.02 (≈ 0.0255 µM) | 0.39 (≈ 0.498 µM) | 0.02 (≈ 0.0255 µM) | 0.02 (≈ 0.0255 µM) | 50 (≈ 63.9 µM) | > 100 | > 100 | > 100 | 0.2 (≈ 0.255 µM) | 100 (≈ 128 µM) | > 100 | > 100 | 0.2 (≈ 0.255 µM) | > 100 | 50 (≈ 63.9 µM) | 0.1 (≈ 0.128 µM) | > 100 | 100 (≈ 128 µM) | MIC ([9]; S. aureus A5177): 0.1 µg/mL (≈ 0.128 µM); MIC [13]: ≤ 0.005 µg/mL; MIC (CANDIDA ALBICANS CCH 442): > 100 µg/mL; MIC [14]: > 100 µg/mL; MIC [15]: > 100 µg/mL; MIC [16]: 0.39 µg/mL (≈ 0.498 µM); MIC [17]: > 100 µg/mL; MIC [18]: 0.1 µg/mL (≈ 0.128 µM); MIC [19]: > 100 µg/mL; MIC [20]: > 100 µg/mL; MIC [21]: 0.2 µg/mL (≈ 0.255 µM); MIC (ESCHERICHIA COLI SS): 0.39 µg/mL (≈ 0.498 µM); MIC [22]: ≤ 0.005 µg/mL |
| CC[C@H]1OC(=O)[C@H](C)C(=O)[C@H](C)[C@@H](O[C@@H]2O[C@H](C)C[C@H](N(C)C)[C@H]2O)[C@](C)(OC)C[C@@H](C)C2=N[C@H](COCc3ccc(OC)cc3)CN3C(=O)O[C@@]1(C)[C@H]3[C@H]2C [Example 90] | 6.2 (≈ 7.87 µM) | > 100 | 0.02 (≈ 0.0254 µM) | 0.78 (≈ 0.99 µM) | 0.02 (≈ 0.0254 µM) | 0.1 (≈ 0.127 µM) | > 100 | > 100 | > 100 | > 100 | 0.39 (≈ 0.495 µM) | > 100 | > 100 | > 100 | 0.39 (≈ 0.495 µM) | > 100 | 100 (≈ 127 µM) | 0.39 (≈ 0.495 µM) | > 100 | 50 (≈ 63.5 µM) | MIC ([9]; S. aureus A5177, unit assumed): 0.39 µg/mL (≈ 0.495 µM); MIC (CANDIDA ALBICANS CCH 442): > 100 µg/mL; MIC [14]: > 100 µg/mL; MIC [15]: > 100 µg/mL; MIC [23]: 0.78 µg/mL (≈ 0.99 µM); MIC [16]: 0.78 µg/mL (≈ 0.99 µM); MIC [17]: > 100 µg/mL; MIC [18]: 0.78 µg/mL (≈ 0.99 µM); MIC [19]: > 100 µg/mL; MIC [21]: 0.39 µg/mL (≈ 0.495 µM); MIC (ESCHERICHIA COLI SS): 0.78 µg/mL (≈ 0.99 µM); MIC [22]: ≤ 0.005 µg/mL |
